Key:
Type in all cases: functional, organism-based
Parameters in all cases: conc 20 uM
[1] = tested on: Mycobacterium intracellulare subsp. chimaera; assay: (§1) Inhibition of mycobacterial growth using the resazurin microtitre cell viability assay (REMA), compounds at final concentration of 20 µM (2% v/v DMSO). Hits were classed as compounds that inhibited bacterial growth by 70% or more compared to drug-free controls.; details: NCTC13781
[2] = tested on: Mycobacterium tuberculosis; assay: as §1; details: H37Rv
[3] = tested on: Mycobacteroides abscessus; assay: as §1; details: ATCC19977

Row | Substance | Survival [1] [%] | Survival [2] [%] | Survival [3] [%]
1 | MMV676501 | 91.8 | 14 | 104
2 | MMV676509 | 89.8 | 85.9 | 113
3 | MMV676512 | 95.9 | 6.01 | 100
4 | MMV676520 | 85.8 | 43.4 | 100
5 | MMV676524 | 97 | 23.4 | 114
6 | MMV676526 | 74.8 | 97.3 | 103
7 | MMV676528 | 102 | 88.7 | 115
8 | MMV676536 | 101 | 90.9 | 119
9 | MMV676539 | 95.1 | 29.7 | 99.7
10 | MMV676554 | 41.2 | 29.4 | 109
11 | MMV676555 | 39 | 71.2 | 123
12 | MMV676558 | 100 | 90.9 | 110
13 | MMV676571 | 100 | 59.4 | 115
14 | MMV676584 | 90.2 | 66.8 | 115
15 | MMV676588 | 76.5 | 19.7 | 102
16 | MMV676589 | 89 | 70.1 | 116
17 | MMV676597 | 99.5 | 98 | 113
18 | MMV676599 | 102 | 88.2 | 115
19 | MMV676600 | 90.1 | 91.1 | 125
20 | MMV676602 | 111 | 105 | 95.5
21 | MMV676603 | 101 | 38.4 | 112
22 | MMV676604 | 104 | 95 | 119
23 | MMV676605 | 110 | 99.5 | 122
24 | MMV676877 | 106 | 90.2 | 107
25 | MMV676881 | 101 | 98.9 | 99.4
26 | MMV687138 | 104 | 56.3 | 102
27 | MMV687145 | 130 | 42.6 | 108

Row | Substance | Survival [1] [%] | Survival [2] [%] | Survival [3] [%]
28 | MMV687146 | 4.5 | 77.5 | 17.2
29 | MMV687170 | 89.9 | 52.7 | 114
30 | MMV687172 | 101 | 129 | 98.3
31 | MMV687180 | 105 | 74.6 | 107
32 | MMV687188 | 73.5 | 43.4 | 110
33 | MMV687189 | 98.5 | 58.1 | 104
34 | MMV687239 | 97.5 | 68.1 | 108
35 | MMV687243 | 106 | 87.1 | 113
36 | MMV687246 | 110 | 90.9 | 119
37 | MMV687248 | 110 | 31.8 | 110
38 | MMV687251 | 88.3 | 5.28 | 116
39 | MMV687254 | 107 | 106 | 113
40 | MMV687273 | 110 | 31.5 | 111
41 | MMV687696 | 75.7 | 44.7 | 109
42 | MMV687699 | 93.8 | 53.6 | 114
43 | MMV687700 | 88 | 84.1 | 107
44 | MMV687703 | 3.71 | 4.55 | 105
45 | MMV687706 | 92.7 | 99.8 | 108
46 | MMV687729 | 30.5 | 13.1 | 112
47 | MMV687730 | 87.3 | 71.2 | 18.8
48 | MMV687747 | 90.2 | 63.6 | 108
49 | MMV687749 | 96.9 | 73.3 | 113
50 | MMV687762 | 101 | 95.8 | 112
51 | MMV687765 | 59 | 26.4 | 116
52 | MMV687775 | 98.2 | 91 | 122
53 | MMV687776 | 99.3 | 90.5 | 124
54 | MMV687794 | 99.9 | 90.9 | 109

From ChEMBL document CHEMBL4665541, “Search for new therapeutic options for the uncommon pathogen Mycobacterium chimaera: an open drug discovery approach” (Lancet Microbe, 2021)
